Measured values published in US9403810B2, “Carboxamide derivatives” (Novartis AG, priority 2014, dated 2016).

Each compound was assayed against Smurf-1 (Homo sapiens (Human), UniProt Q9HCE7) (assay: HECT E3 ligase autoubiquitinylation TR-FRET assay (Smurf-1)). Conditions: 8-point dose-response curve, 3 nM to 10 uM; 45 min incubation.
Assay type: biochemical
Source text: To determine the HECT E3 ligase selectivity of the compounds, a panel of biochemical HECT E3 ligase autoubiquitinylation assays was employed (Smurf-1, Smurf-2, WWP1, WWP2, ITCH, Nedd4, Nedd4L and E6AP). The conjugation of ubiquitin to a protein substrate is a multistep process. In an initial ATP-requiring step, a thioester bond is formed between the carboxyl terminus of ubiquitin and an internal cystein residue of the ubiquitin-activating enzyme (E1). Activated ubiquitin is then transferred to a specific cystein residue of an ubiquitin-conjugating enzyme (E2). E2s donate ubiquitin to a HECT E3 ligase (E3) from which it is transferred to the substrate protein. HECT E3 ligases can auto-ubiquitinylate. This event is detected in the TR-FRET (Time-Resolved Fluorescence Resonance Energy Transfer) assay used in this panel. The reaction mix contains E1, E2, tagged-E3, biotin-conjugated ubiquitin, the compound and ATP in a suitable buffer and is incubated for 45 minutes to allow auto-ubiquitinylation of the E3 ligase. To measure the extent of ubiquitinylated E3 ligase by TR-FRET, the donor fluorophore Europium cryptate (Eu3+ cryptate), conjugated to streptavidin which subsequently binds to biotinylated ubiquitin, and the modified allophycocyanin XL665 (HTRF® primary acceptor fluorophore) coupled to a tag-specific antibody (HA, His or GST), which recognizes the respective E3 ligase fusion proteins, are added after the reaction is complete. When these two fluorophores are brought together by a bimolecular interaction (in this case ubiquitinylation of the E3 ligase), a portion of the energy captured by the Cryptate during excitation is released through fluorescence emission at 620 nm, while the remaining energy is transferred to XL665. This energy is then released by XL665 as specific fluorescence at 665 nm. Light at 665 nm is emitted only through FRET with Europium.
Test and reference compounds are prepared at 180× [final] in 90% DMSO, and diluted 1:3 in 90% DMSO.
For the biochemical assay panel, 50 nl of the test compounds, reference compounds and buffer/DMSO control are transferred to the respective wells of a 384-well white GREINER “SMALL VOLUME” PS plate. The assay panel is run at room temperature on a Biomek FX liquid handling workstation. To the assay plates containing 50 nl compound or control solutions in 90% DMSO, 4.5 ul of E3 ligase solution were added per well, followed by 4.5 ul of the pre-incubated E1/E2/Ub mix or the pre-diluted ubiquitin (LOW control). Plates are shaken vigorously after each addition. In this assay the compound concentrations range from 3 nM to 10 uM in an 8-point dose-response curve.
After an incubation time of 45 min in the dark, the plates are transferred into the Pherastar fluorescence reader to measure the TR-FRET signal.

Smurf-1, sequence (Q9HCE7 whole entry): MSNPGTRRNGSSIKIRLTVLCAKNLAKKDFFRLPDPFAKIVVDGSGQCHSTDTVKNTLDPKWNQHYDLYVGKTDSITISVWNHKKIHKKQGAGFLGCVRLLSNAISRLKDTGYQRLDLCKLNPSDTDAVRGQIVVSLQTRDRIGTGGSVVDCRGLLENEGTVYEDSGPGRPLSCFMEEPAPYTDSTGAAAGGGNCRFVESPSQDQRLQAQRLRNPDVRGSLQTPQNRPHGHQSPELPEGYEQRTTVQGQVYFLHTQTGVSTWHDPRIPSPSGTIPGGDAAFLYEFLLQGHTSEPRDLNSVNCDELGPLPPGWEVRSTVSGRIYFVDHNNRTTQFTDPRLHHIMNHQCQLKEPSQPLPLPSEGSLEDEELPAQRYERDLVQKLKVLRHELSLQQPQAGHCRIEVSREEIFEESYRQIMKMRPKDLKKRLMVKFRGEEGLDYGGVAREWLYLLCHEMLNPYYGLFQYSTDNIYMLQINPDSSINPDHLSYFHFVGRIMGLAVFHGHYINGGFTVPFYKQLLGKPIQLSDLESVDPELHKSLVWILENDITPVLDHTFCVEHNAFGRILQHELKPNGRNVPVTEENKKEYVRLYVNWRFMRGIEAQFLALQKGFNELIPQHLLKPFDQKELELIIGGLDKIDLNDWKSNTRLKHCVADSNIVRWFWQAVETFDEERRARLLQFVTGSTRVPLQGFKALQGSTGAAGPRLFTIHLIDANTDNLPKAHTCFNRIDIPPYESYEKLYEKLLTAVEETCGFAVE

Q: With `Cc1c(C(=O)Nc2c(C)n(C)n(C3CCC3)c2=O)noc1[C@@H]1CCC[C@H](C(C)(C)C)O1` (single isomer, unassigned) [Example 15a, 5-((2S,6R)-6-(tert-Butyl)tetrahydro-2H-pyran-2-yl)-N-(2-cyclobutyl-1,5-dimethyl-3-oxo-2,3-dihydro-1H-pyrazol-4-yl)-4-methylisoxazole-3-carboxamide or 5-((2R,6S)-6-(tert-Butyl)tetrahydro-2H-pyran-2-yl)-N-(2-cyclobutyl-1,5-dimethyl-3-oxo-2,3-dihydro-1H-pyrazol-4-yl)-4-methylisoxazole-3-carboxamide] as the compound, how does the IC50 read?
A: 290 nM

Q: Which IC50 does the source give for `Cc1c(C(=O)Nc2c(C)n(C)n(C3CCC3)c2=O)noc1[C@H]1CCC[C@@H](C(C)(C)C)O1` (single isomer, unassigned) [Example 15b, 5-((2R,6S)-6-(tert-butyl)tetrahydro-2H-pyran-2-yl)-N-(2-cyclobutyl-1,5-dimethyl-3-oxo-2,3-dihydro-1H-pyrazol-4-yl)-4-methylisoxazole-3-carboxamide or 5-((2S,6R)-6-(tert-Butyl)tetrahydro-2H-pyran-2-yl)-N-(2-cyclobutyl-1,5-dimethyl-3-oxo-2,3-dihydro-1H-pyrazol-4-yl)-4-methylisoxazole-3-carboxamide] here?
A: 630 nM

Q: Which IC50 does the source give for `Cc1c(C(=O)Nc2c(C)n(C)n(C3CCCCC3)c2=O)noc1[C@@H]1CCC[C@H](C(C)(C)C)O1` (single isomer, unassigned) [Example 16, 5-((2S,6R)-6-(tert-butyl)tetrahydro-2H-pyran-2-yl)-N-(2-cyclohexyl-1,5-dimethyl-3-oxo-2,3-dihydro-1H-pyrazol-4-yl)-4-methylisoxazole-3-carboxamide or 5-((2R,6S)-6-(tert-butyl)tetrahydro-2H-pyran-2-yl)-N-(2-cyclohexyl-1,5-dimethyl-3-oxo-2,3-dihydro-1H-pyrazol-4-yl)-4-methylisoxazole-3-carboxamide] here?
A: 37 nM

Q: For `Cc1c(C(=O)Nc2c(C)n(C)n(C3CCCCC3)c2=O)noc1C1=CCC(C(C)C)CC1` (centres unmarked) [Example 1, N-(2-Cyclohexyl-1,5-dimethyl-3-oxo-2,3-dihydro-1H-pyrazol-4-yl)-5-(4-isopropylcyclohex-1-en-1-yl)-4-methylisoxazole-3-carboxamide], which IC50 is on record?
A: 2.8 nM

Q: For `CCC1CC(C)CC=C1c1onc(C(=O)Nc2c(C)n(C)n(C3CCCCC3)c2=O)c1C` (centres unmarked) [Example 1.1, N-(2-Cyclohexyl-1,5-dimethyl-3-oxo-2,3-dihydro-1H-pyrazol-4-yl)-5-(6-ethyl-4-methylcyclohex-1-en-1-yl)-4-methylisoxazole-3-carboxamide], which IC50 is on record?
A: 2.1 nM

Q: Which IC50 does the source give for `Cc1c(C(=O)Nc2c(C)n(C)n(C3CCCCC3)c2=O)noc1C1=CCCCC1(C)C` [Example 1.2, N-(2-Cyclohexyl-1,5-dimethyl-3-oxo-2,3-dihydro-1H-pyrazol-4-yl)-5-(6,6-dimethylcyclohex-1-en-1-yl)-4-methylisoxazole-3-carboxamide] here?
A: 14 nM

Q: For `CCC1CC=C(c2onc(C(=O)Nc3c(C)n(C)n(C4CCCCC4)c3=O)c2C)CC1` (centres unmarked) [Example 1.3, N-(2-Cyclohexyl-1,5-dimethyl-3-oxo-2,3-dihydro-1H-pyrazol-4-yl)-5-(4-ethylcyclohex-1-en-1-yl)-4-methylisoxazole-3-carboxamide], which IC50 is on record?
A: 1.8 nM

Q: For `Cc1c(C(=O)Nc2c(C)n(C)n(C3CCCCC3)c2=O)noc1C1=CCC(C(C)(C)C)CC1` (centres unmarked) [Example 1.4, 5-(4-(tert-Butyl)cyclohex-1-en-1-yl)-N-(2-cyclohexyl-1,5-dimethyl-3-oxo-2,3-dihydro-1H-pyrazol-4-yl)-4-methylisoxazole-3-carboxamide], which IC50 is on record?
A: 3.2 nM

Q: `Cc1c(C(=O)Nc2c(C)n(C)n(C3CCCCC3)c2=O)noc1C1=CCCCCC1` [Example 1.6, 5-(Cyclohept-1-en-1-yl)-N-(2-cyclohexyl-1,5-dimethyl-3-oxo-2,3-dihydro-1H-pyrazol-4-yl)-4-methylisoxazole-3-carboxamide] was tested. Which IC50 did it give?
A: 8 nM

Q: How did the IC50 turn out when `Cc1c(C(=O)Nc2c(C)n(C)n(C3CCCCC3)c2=O)noc1C1=CCC(C(F)(F)F)CC1` (centres unmarked) [Example 1.7, N-(2-Cyclohexyl-1,5-dimethyl-3-oxo-2,3-dihydro-1H-pyrazol-4-yl)-4-methyl-5-(4-(trifluoromethyl)cyclohex-1-en-1-yl)isoxazole-3-carboxamide] was run?
A: 33 nM

Q: `Cc1c(C(=O)Nc2c(C)n(C)n(C3CCCCC3)c2=O)noc1C1=CCC2(CCCC2)CC1` [Example 2, N-(2-Cyclohexyl-1,5-dimethyl-3-oxo-2,3-dihydro-1H-pyrazol-4-yl)-4-methyl-5-(spiro[4.5]dec-7-en-8-yl)isoxazole-3-carboxamide] was tested. Which IC50 did it give?
A: 2.5 nM

Q: With `Cc1c(C(=O)Nc2c(C)n(C)n(C3CCCCC3)c2=O)noc1C1=CCC2(CCCO2)CC1` (centres unmarked) [Example 2.1, N-(2-Cyclohexyl-1,5-dimethyl-3-oxo-2,3-dihydro-1H-pyrazol-4-yl)-4-methyl-5-(1-oxaspiro[4.5]dec-7-en-8-yl)isoxazole-3-carboxamide] as the compound, how does the IC50 read?
A: 64 nM

Q: `Cc1c(C(=O)Nc2c(C)n(C)n(C3CCCCC3)c2=O)noc1C1=CCC(C)(C)CC1` [Example 2.2, N-(2-Cyclohexyl-1,5-dimethyl-3-oxo-2,3-dihydro-1H-pyrazol-4-yl)-5-(4,4-dimethylcyclohex-1-en-1-yl)-4-methylisoxazole-3-carboxamide] was tested. Which IC50 did it give?
A: 0.9 nM

Q: With `Cc1c(C(=O)Nc2c(C)n(C)n(C3CCCCC3)c2=O)noc1C1=CCC(C)(C)C1` [Example 3, N-(2-Cyclohexyl-1,5-dimethyl-3-oxo-2,3-dihydro-1H-pyrazol-4-yl)-5-(4,4-dimethylcyclopent-1-en-1-yl)-4-methylisoxazole-3-carboxamide] as the compound, how does the IC50 read?
A: 6 nM

Q: Which IC50 does the source give for `Cc1c(C(=O)Nc2c(C)n(C)n(C3CCCCC3)c2=O)noc1C1=CCC2(CCOC2)CC1` (centres unmarked) [Example 4, N-(2-Cyclohexyl-1,5-dimethyl-3-oxo-2,3-dihydro-1H-pyrazol-4-yl)-4-methyl-5-(2-oxaspiro[4.5]dec-7-en-8-yl)isoxazole-3-carboxamide] here?
A: 100 nM

Q: `Cc1c(C(=O)Nc2c(C)n(C)n(C3CCCCC3)c2=O)noc1C1=CCC(OC(C)C)CC1` (centres unmarked) [Example 5, N-(2-Cyclohexyl-1,5-dimethyl-3-oxo-2,3-dihydro-1H-pyrazol-4-yl)-5-(4-isopropoxycyclohex-1-en-1-yl)-4-methylisoxazole-3-carboxamide] was tested. Which IC50 did it give?
A: 310 nM

Q: How did the IC50 turn out when `Cc1c(C(=O)Nc2c(C)n(C)n(C3CCCCC3)c2=O)noc1C1CCC(C)(C)CC1` [Example 6, N-(2-Cyclohexyl-1,5-dimethyl-3-oxo-2,3-dihydro-1H-pyrazol-4-yl)-5-(4,4-dimethylcyclohexyl)-4-methylisoxazole-3-carboxamide] was run?
A: 5.7 nM

Q: For `Cc1c(C(=O)Nc2c(C)n(C)n(C3CCCCC3)c2=O)noc1C1CCC(C)(C)C1` (centres unmarked) [Example 6.1, N-(2-Cyclohexyl-1,5-dimethyl-3-oxo-2,3-dihydro-1H-pyrazol-4-yl)-5-(3,3-dimethylcyclopentyl)-4-methylisoxazole-3-carboxamide], which IC50 is on record?
A: 23 nM

Q: Which IC50 does the source give for `Cc1c(C(=O)Nc2c(C)n(C)n(C3CCCCC3)c2=O)noc1CCC(C)(C)C` [Example 7, N-(2-Cyclohexyl-1,5-dimethyl-3-oxo-2,3-dihydro-1H-pyrazol-4-yl)-5-(3,3-dimethylbutyl)-4-methylisoxazole-3-carboxamide] here?
A: 19 nM

Q: How did the IC50 turn out when `Cc1c(C(=O)Nc2c(C)n(C)n(C3CCCCC3)c2=O)noc1/C=C\C(C)(C)C` [Example 8, (Z)—N-(2-Cyclohexyl-1,5-dimethyl-3-oxo-2,3-dihydro-1H-pyrazol-4-yl)-5-(3,3-dimethylbut-1-en-1-yl)-4-methylisoxazole-3-carboxamide] was run?
A: 46 nM

Q: Which IC50 does the source give for `Cc1c(C(=O)Nc2c(C)n(C)n(C3CCCCC3)c2=O)noc1/C=C/C(C)(C)C` [Example 9, (E)-N-(2-Cyclohexyl-1,5-dimethyl-3-oxo-2,3-dihydro-1H-pyrazol-4-yl)-5-(3,3-dimethylbut-1-en-1-yl)-4-methylisoxazole-3-carboxamide] here?
A: 58 nM

Q: Which IC50 does the source give for `Cc1c(C(=O)Nc2c(C)n(C)n(C3CCCCC3)c2=O)noc1C1CCCCC1` [Example 10, 5-Cyclohexyl-N-(2-cyclohexyl-1,5-dimethyl-3-oxo-2,3-dihydro-1H-pyrazol-4-yl)-4-methylisoxazole-3-carboxamide] here?
A: 50 nM

Q: For `Cc1c(C(=O)Nc2c(C)n(C)n(C3CCCCC3)c2=O)noc1C1CCC2(CC1)OCCO2` [Example 11, N-(2-Cyclohexyl-1,5-dimethyl-3-oxo-2,3-dihydro-1H-pyrazol-4-yl)-4-methyl-5-(1,4-dioxaspiro[4.5]decan-8-yl)isoxazole-3-carboxamide], which IC50 is on record?
A: 420 nM
